The numbers were not newly measured in patent US20180140566A1, “ACETAMINOPHEN AND TRAMADOL COMPOUND ORAL SOLUTION” (BORA PHARMACEUTICALS CO., LTD., priority 2016, published 2018), which cites them from elsewhere.

Consider `COc1cccc(C2(O)CCCCC2CN(C)C)c1` (stereo not drawn) [Tramadol, tramadol], for which the solubility in acetone entry (acetone, in words) is “hardly dissolves”. Besides, the solubility in water result (water, in words) is “makes great aqueous solutions”.

Regarding `CC(=O)Nc1ccc(O)cc1` [acetaminophen], the “amount of acetaminophen dissolved per milliliter of water” value (per milliliter (mL) of water, at 25 degrees Celsius) was “no more than 14.00 mg”.
